This assay has as its target T1, triosephosphate isomerase (rabbit muscle TIM) (Oryctolagus cuniculus, UniProt P00939).
T1 construct: gene TPI1; native enzyme from rabbit muscle, commercial reagent (Sigma-Aldrich); homodimer; 1R2R is the rabbit TIM structure used for docking
Briefly: coupled assay with alpha-glycerophosphate dehydrogenase, NADH at […] nm. In kind it is biochemical.

Read-outs that look alike come from different tables or passages of the source.

T1 sequence (P00939 2-249): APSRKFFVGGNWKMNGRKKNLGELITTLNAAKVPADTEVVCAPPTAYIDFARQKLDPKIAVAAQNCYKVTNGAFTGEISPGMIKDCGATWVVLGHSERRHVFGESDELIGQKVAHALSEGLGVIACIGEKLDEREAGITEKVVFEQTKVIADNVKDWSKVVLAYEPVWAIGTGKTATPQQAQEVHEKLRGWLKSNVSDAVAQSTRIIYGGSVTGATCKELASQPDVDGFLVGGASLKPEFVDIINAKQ

As to `Nc1nc2c(c(=O)[nH]1)C(c1ccccc1)C1=C(N2)c2ccccc2C1=O` (racemic) [compound 1, 2-amino-5-phenyl-3H-indeno[2′,1′:5,6]pyrido[2,3-d]pyrimidine-4,6(5H,11H)-dione], under “read-out: K i”, the Ki turned out to be 44 µM. For the compound `O=C1C2=C(Nc3[nH]c(=O)[nH]c(=O)c3[C@H]2c2ccccc2)c2ccccc21` [compound 2, Compound 2], the Ki (glyceraldehyde-3-phosphate 0.4 mM (= Km), NADH 0.1 mM, pH 8.0, Ki calculated from IC50 by Ki = Kapp/(1 + [S]/Km), read-out: 2) is more than 440 µM.

The values above are taken from PMC4207401, “A Novel Inhibitor of Mammalian Triosephosphate Isomerase Found by an In Silico Approach” (International Journal of Medicinal Chemistry, 2014).
